# Test results published in PMC6395927, “Rufomycin Targets ClpC1 Proteolysis in Mycobacterium tuberculosis and M. abscessus” (Antimicrobial Agents and Chemotherapy, 2019).
# Like-named read-outs stand apart in the source and are kept apart here. Numbered stars: 1 amine (or outer) side, 2 acyl side, 3 side chain; on linkers, the order of the positions; unused ones are H or OH. Square brackets hold non-standard residues; d marks the D form. Peptide text beside a SMILES is read from it. ξ: configuration not given here. Trp(1-(1,1-Me2-allyl)) = C=CC(C)(C)n1cc(C[C@H](N)C(=O)O)c2ccccc21; X4 = CC(C)(C1CO1)n1cc(C[C@H](N[*:1])C(=O)[*:2])c2ccccc21; Tyr(3-NO2) = N[C@@H](Cc1ccc(O)c([N+](=O)[O-])c1)C(=O)O; X3 = CC(CC(C(=O)[*:2])N(C)[*:1])C(=O)O; Gly(E-crotyl) = C/C=C/C[C@H](N)C(=O)O; NMeL = CN[C@@H](CC(C)C)C(=O)O; ξNMeL = CNC(CC(C)C)C(=O)O
# Legend:
# [1] = test system: Candida albicans (ATCC 10231); test: MIC against nonmycobacteria (OD570); assay type: cell-based; conditions: ATCC10231, C. albicans
# From the text: Standard compounds used were ampicillin (AMP) and gentamicin (GEN). […] Amphotericin B (AmphB) and ketoconazole (KETO) were used as standard compounds.
# [2] = test system: M. smegmatis (ATCC 700084); test: microbe, parasite or virus in culture; assay type: cell-based; conditions: Mycolicibacterium smegmatis, ATCC700084; M. smegmatis; read-out: MIC
# M. kansasii (ATCC 12478) = test: microbe, parasite or virus in culture; assay type: cell-based; conditions: Mycobacterium kansasii, ATCC12478; M. kansasii; read-out: MIC
# M. bovis (ATCC 35734) = test: microbe, parasite or virus in culture; assay type: cell-based; conditions: Mycobacterium tuberculosis variant bovis, ATCC35734
# M. chelonae (ATCC 35752) = test: microbe, parasite or virus in culture; assay type: cell-based, Mycobacterium chelonae; conditions: Mycobacteroides chelonae, ATCC35752; M. chelonae; read-out: MIC
# [3] = test system: M. abscessus (ATCC 19977); test: microbe, parasite or virus in culture; assay type: cell-based, Mycobacterium abscessus; conditions: Mycobacteroides abscessus, ATCC19977, M. abscessus; read-out: MIC
# M. marinum (ATCC 927) = test: microbe, parasite or virus in culture; assay type: cell-based; conditions: Mycobacterium marinum, ATCC927; M. marinum; read-out: MIC
# M. avium (ATCC 15769) = test: microbe, parasite or virus in culture; assay type: cell-based; conditions: Mycobacterium avium, ATCC15769; M. avium; read-out: MIC
# [4] = test system: M. tuberculosis strain H37Rv (ATCC 27294); test: microbe, parasite or virus in culture; assay type: cell-based, Mycobacterium tuberculosis
# [5] = test system: M. tuberculosis 5 global clade representatives; test: microbe, parasite or virus in culture; assay type: cell-based; conditions: Mycobacterium tuberculosis, read-out: MICs
# [6] = Mycobacterium tuberculosis, read-out: MIC against M. tuberculosis
compound,measurement,setting,value
"C[C@@H]1[C@H](O)[C@@H](C)/C=C/C=C/C=C/C=C/C=C/C=C/C=C/[C@H](O[C@@H]2O[C@H](C)[C@@H](O)[C@H](N)[C@@H]2O)C[C@@H]2O[C@](O)(C[C@@H](O)C[C@@H](O)[C@H](O)CC[C@@H](O)C[C@@H](O)CC(=O)O[C@H]1C)C[C@H](O)[C@H]2C(=O)O [AmphB, amphotericin B]",MIC,[1],2.6 µM
"CC(C)/N=c1\cc2n(-c3ccc(Cl)cc3)c3ccccc3nc-2cc1Nc1ccc(Cl)cc1 [CLO, clofazimine]",MIC,[2],2.39 µM
same,MIC,M. kansasii (ATCC 12478),< 0.2 µM
same,MIC,M. bovis (ATCC 35734),< 0.2 µM
same,MIC,M. chelonae (ATCC 35752),10 µM
same,MIC,[3],9.23 µM
same,MIC,M. marinum (ATCC 927),0.34 µM
same,MIC,M. avium (ATCC 15769),< 0.2 µM
C=CC(C)(C)n1cc(C[C@@H]2NC(=O)[C@H](C/C=C/C)NC(=O)[C@H](CC(C)C)N3CC(C)CC(C3=O)N(C)C(=O)[C@H](C)NC(=O)[C@H](Cc3ccc(O)c([N+](=O)[O-])c3)NC(=O)[C@H](CC(C)C)N(C)C2=O)c2ccccc21 (stereo partly shown) [III],MIC,[4]; [6],1 µM
C/C=C/C[C@@H]1NC(=O)[C@H](CC(C)C)N2C(=O)C(C[C@@H](C)[C@H]2O)N(C)C(=O)[C@H](C)NC(=O)[C@H](Cc2ccc(O)c([N+](=O)[O-])c2)NC(=O)[C@H](CC(C)C)N(C)C(=O)[C@H](Cc2cn(C(C)(C)C3CO3)c3ccccc23)NC1=O (stereo partly shown) [II],MIC,[4]; [6],0.05 µM
"NNC(=O)c1ccncc1 [INH, isoniazid]",MIC,[2],360 µM
same,MIC,[4]; Mycobacterium tuberculosis,0.23 µM
same,MIC,M. kansasii (ATCC 12478),3.84 µM
same,MIC,M. bovis (ATCC 35734),0.48 µM
same,MIC,M. chelonae (ATCC 35752),> 8 µM
same,MIC,[5],0.25 to 0.47 µM
same,MIC,[3],> 8 µM
same,MIC,M. marinum (ATCC 927),> 8 µM
same,MIC,M. avium (ATCC 15769),> 8 µM
C/C=C/C[C@@H]1NC(=O)[C@H](CC(C)C)NC(=O)C(CC(C)C)N(C)C(=O)[C@H](C)NC(=O)[C@H](Cc2ccc(O)c([N+](=O)[O-])c2)NC(=O)[C@H](CC(C)C)NC(=O)[C@H](Cc2cn(C(C)(C)C3CO3)c3ccccc23)NC1=O (stereo partly shown) [IV] (cyclo(A[ξNMeL]L[Gly(E-crotyl)][X4]L[Tyr(3-NO2)])),MIC,[4]; [6],0.58 µM
"CC(=O)N1CCN(c2ccc(OCC3COC(Cn4ccnc4)(c4ccc(Cl)cc4Cl)O3)cc2)CC1 (stereo not shown) [KETO, ketoconazole]",MIC,[1],0.98 µM
"CC(=O)NC[C@H]1CN(c2ccc(N3CCOCC3)c(F)c2)C(=O)O1 [LZD, linezolid]",MIC,[4]; Mycobacterium tuberculosis,1.8 µM
same,MIC,[5],0.41 to 1.6 µM
"COc1c(N2C[C@@H]3CCCN[C@@H]3C2)c(F)cc2c(=O)c(C(=O)O)cn(C3CC3)c12 [MXF, moxifloxacin]",MIC,[4]; Mycobacterium tuberculosis,0.26 µM
"O=[N+]([O-])c1cn2c(n1)OC[C@@H](OCc1ccc(OC(F)(F)F)cc1)C2 [PA824, pretomanid]",MIC,[4]; Mycobacterium tuberculosis,0.04 µM
same,MIC,M. kansasii (ATCC 12478),4.7 µM
same,MIC,M. bovis (ATCC 35734),0.1 µM
same,MIC,M. chelonae (ATCC 35752),> 8 µM
same,MIC,[5],0.03 to 0.1 µM
same,MIC,[3],> 8 µM
same,MIC,M. marinum (ATCC 927),> 8 µM
same,MIC,M. avium (ATCC 15769),> 8 µM
"[H]/N=C(/N)N[C@H]1[C@H](O)[C@@H](O)[C@H](O[C@@H]2O[C@@H](C)[C@](O)(C=O)[C@H]2O[C@@H]2O[C@@H](CO)[C@H](O)[C@@H](O)[C@@H]2NC)[C@@H](N/C(N)=N\[H])[C@@H]1O [STR, streptomycin]",MIC,[4]; Mycobacterium tuberculosis,0.15 µM
C/C=C/C[C@@H]1NC(=O)[C@H](CC(C)C)NC(=O)C(CC(C)C(=O)O)N(C)C(=O)[C@H](C)NC(=O)[C@H](Cc2ccc(O)c([N+](=O)[O-])c2)NC(=O)[C@H](CC(C)C)N(C)C(=O)[C@H](Cc2cn(C(C)(C)C3CO3)c3ccccc23)NC1=O (stereo partly shown) [VII] (cyclo(A[X3]L[Gly(E-crotyl)][X4][NMeL][Tyr(3-NO2)])),MIC,[4]; [6],1 µM
"C=CC(C)(C)n1cc(C[C@@H]2NC(=O)[C@H](C/C=C/C)NC(=O)[C@H](CC(C)C)NC(=O)C(CC(C)C)N(C)C(=O)[C@H](C)NC(=O)[C@H](Cc3ccc(O)cc3)NC(=O)[C@H](CC(C)C)N(C)C2=O)c2ccccc21 (stereo partly shown) [VI] (cyclo(A[ξNMeL]L[Gly(E-crotyl)][Trp(1-(1,1-Me2-allyl))][NMeL]Y))",MIC,[4]; [6],> 50 µM
C/C=C/C[C@@H]1NC(=O)[C@H](CC(C)C)NC(=O)C(CC(C)C)N(C)C(=O)[C@H](C)NC(=O)[C@H](Cc2ccc(O)c([N+](=O)[O-])c2)NC(=O)[C@H](CC(C)C)N(C)C(=O)[C@H](Cc2cn(C(C)(C)C3CO3)c3ccccc23)NC1=O (stereo partly shown) [V] (cyclo(A[ξNMeL]L[Gly(E-crotyl)][X4][NMeL][Tyr(3-NO2)])),MIC,[4]; [6],0.07 µM
capreomycin,MIC,[4],0.39 µM
